Legend:
Human GPR119 = biological target: T1, Human GPR119 (Homo sapiens, UniProt Q8TDV5); assay: Human GPR119 activation assay (cAMP, HTRF); assay type: cell-based; details: HEK293 cells transiently expressing human GPR119, relative to maximum effect of OEA; for Emax at 0.001 µM / Emax at 0.01 µM: 1 h, read-out: hGPR119 activation ability (cAMP assay) Relative Response % vs OEA
T1 construct: host or cells: HEK293 (ATCC)
T1 sequence (Q8TDV5 1-335): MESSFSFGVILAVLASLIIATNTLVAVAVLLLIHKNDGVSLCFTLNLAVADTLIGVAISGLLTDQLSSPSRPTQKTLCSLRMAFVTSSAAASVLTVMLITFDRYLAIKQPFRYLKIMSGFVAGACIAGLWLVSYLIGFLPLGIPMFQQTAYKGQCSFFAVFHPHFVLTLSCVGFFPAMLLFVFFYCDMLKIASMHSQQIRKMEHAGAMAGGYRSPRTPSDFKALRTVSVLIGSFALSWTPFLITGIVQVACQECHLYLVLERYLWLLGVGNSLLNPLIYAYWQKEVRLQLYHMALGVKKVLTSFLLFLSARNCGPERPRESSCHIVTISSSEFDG
From the text: <Experimental Example 1>Human GPR119 activation assay
Human GPR119 was temporarily expressed on cells, thereby quantifying the amount of cyclic adenosine 3′,5′-monophosphate (cAMP) increased upon activating GPR119 by the compound of the present invention, using the product from Cysbio, by a method of HTRF (homogeneous time resolved fluorescence), and such quantification was used to refer to efficacy on GPR119 activation.
Human GPR119 expression vector (Origene) was overexpressed in […] renal epithelial cells (HEK293) (ATCC), and the cells were stabilized for 48 hours. With a solution of 11.1 mM glucose, 0.1% bovine serum albumin, and 0.5 mM IBMX (3-isobutyl-1-methylxanthine) which is a phosphodiesterase inhibitor being added to a KRBH (Krebs-Ringer Bicarbonate HEPES; Hou ZQ. et al., Mol Cell Endocrinol, 2008(291):71-78) buffer, the cells were pre-treated for 10 minutes. Thereafter, the cells were treated with the same solution containing a drug for 60 minutes, then the supernatant was removed, and the increase in cAMP in cells was quantified using a Cysbio cAMP HiRange kit.
As to the maximum efficacy of compounds tested, multiple concentration assessment for the compounds of the present invention was carried out, thereby assessing the relative activation level (%) to the maximum effect of oleoylethanolamide (OEA), an endogenous ligand of GPR119.

C57BL/6 mouse = assay: Assessment of glucose tolerance improvement effect in mouse; assay type: in vivo; details: 2 h; 10 mg/kg oral, 30 min before oral glucose 2 g/kg; male C57BL/6 mouse; blood glucose AUC
Description: <Experimental Example 2>Assessment of glucose tolerance improvement effect in mouse
As one of anti-diabetic effect indicators, the glucose tolerance improvement effect of the above compounds was evaluated in 7-week male laboratory mouse (C57BL/6 mouse), as the effect of improving postprandial glycemic control ability.
The laboratory mouse was fasted from the day before the experiment for 16-17 hours. The compound of the present invention was orally administered 30 minutes before administrating glucose, and after 30 minutes, a glucose solution (2 g/kg/10 ml) was orally administered. A drug was prepared by suspending in a 10% Gelucire solution. At the times immediately before drug administration, immediately before glucose solution administration, 15 minutes, 30 minutes, 60 minutes, 90 minutes, and 120 minutes after glucose administration, the whole blood glucose levels was measured from tail vein using a blood glucose meter (AccuChek Active, Roche Diagnostics), and the area under the curve of a temporal blood glucose curve was calculated. From the calculated area under the blood glucose curve, the area under the blood glucose curve of a negative control group to which no glucose solution was administered was subtracted, and inhibitory activity against blood glucose increase of a control group to which only the 10% Gelucire solution and glucose solution were administered was calculated as a percentage, thereby evaluating the glucose tolerance improvement efficacy of a drug.
The results are shown in Table 3, in which the glucose tolerance improvement effect represented at a dose of 10 mg/kg was represented by classifying into three groups, under 30%, more than 30% under 40%, and more than 40%. A significant glucose tolerance improvement effect was identified in 22 compounds on which the experiment was carried out, and among those compounds, 16 compounds represented an excellent in vivo activity of 30% inhibitory dose of 10 mg/kg or less. In the following Table 3, A represents an inhibitory activity more than 40%, B represents an inhibitory activity more than 30% under 40% and C represents an inhibitory activity under 30%.

Row | SMILES | Emax at 0.001 µM (Human GPR119; 1 nM) | Emax at 0.01 µM (Human GPR119; 10 nM) | inhibition in vivo at 10 mg/kg (C57BL/6 mouse) | hGPR119 activation ability (cAMP assay) Relative Response % vs OEA (Human GPR119; 1 nM) | hGPR119 activation ability (cAMP assay) Relative Response % vs OEA (Human GPR119; 10 nM)
1 | CCc1cnc(N2CCC(CCCOc3cc(F)c(C4=NC[C@H](C)O4)c(F)c3)CC2)nc1 [Example 4, (S)-2-(4-(3-(1-(5-ethylpyrimidin-2-yl)piperidin-4-yl)propoxy)-2,6-difluorophenyl)-5-methyl-4,5-dihydrooxazole] | 79.6% | 167% | < 30% | – | –
2 | CCc1cnc(N2CCC(CCCOc3cc(F)c(C4=NC[C@@H](C)O4)c(F)c3)CC2)nc1 [Example 5, (R)-2-(4-(3-(1-(5-ethylpyrimidin-2-yl)piperidin-4-yl)propoxy)-2,6-difluorophenyl)-5-methyl-4,5-dihydrooxazole] | 44.6% | 150% | > 40% | – | –
3 | CCc1cnc(N2CCC(CCCOc3cc(F)c(C4=NC[C@H](CO)O4)c(F)c3)CC2)nc1 [Example 7, (R)-(2-(4-(3-(1-(5-ethylpyrimidin-2-yl)piperidin-4-yl)propoxy)-2,6-difluorophenyl)-4,5-dihydrooxazol-5-yl)methanol] | 51.3% | 170% | < 30% | – | –
4 | CC(C)c1noc(N2CCC(CCCOc3cc(F)c(C4=NC[C@H](C)O4)c(F)c3)CC2)n1 [Example 11, (S)-5-(4-(3-(3,5-difluoro-4-(5-methyl-4,5-dihydrooxazol-2-yl)phenoxy)propyl)piperidin-1-yl)-3-isopropyl-1,2,4-oxadiazole] | 184% | 266% | < 30% | – | –
5 | CC(C)c1noc(N2CCC(CCCOc3cc(F)c(C4=NCC(C)(C)O4)c(F)c3)CC2)n1 [Example 12, 5-(4-(3-(4-(5,5-dimethyl-4,5-dihydrooxazol-2-yl)-3,5-difluorophenoxy)propyl)piperidin-1-yl)-3-isopropyl-1,2,4-oxadiazole] | 116% | 232% | > 40% | – | –
6 | CCc1cnc(N2CCC(CCCOc3cc(F)c(-c4noc(C)n4)c(F)c3)CC2)nc1 [Example 13, 3-(4-(3-(1-(5-ethylpyrimidin-2-yl)piperidin-4-yl)propoxy)-2,6-difluorophenyl)-5-methyl-1,2,4-oxadiazole] | 49.4% | 126% | 30 to 40% | – | –
7 | CCc1cnc(N2CCC(CCCOc3cc(F)c(-c4noc(C(C)C)n4)c(F)c3)CC2)nc1 [Example 15, 3-(4-(3-(1-(5-ethylpyrimidin-2-yl)piperidin-4-yl)propoxy)-2,6-difluorophenyl)-5-isopropyl-1,2,4-oxadiazole] | – | – | > 40% | 87.7% | 183.8%
8 | CCc1cnc(N2CCC(CCCOc3cc(F)c(-c4noc([C@@H](O)CC)n4)c(F)c3)CC2)nc1 [Example 19, (S)-1-(3-(4-(3-(1-(5-ethylpyrimidin-2-yl)piperidin-4-yl)propoxy)-2,6-difluorophenyl)-1,2,4-oxadiazol-5-yl) propan-1-ol] | 46.5% | 313% | 30 to 40% | – | –
9 | CCc1cnc(N2CCC(CCCOc3cc(F)c(-c4noc(C(C)(C)CO)n4)c(F)c3)CC2)nc1 [Example 22, 2-(3-(4-(3-(1-(5-ethylpyrimidin-2-yl)piperidin-4-yl)propoxy)-2,6-difluorophenyl)-1,2,4-oxadiazol-5-yl)-2-methylpropan-1-ol] | 54.9% | 178% | 30 to 40% | – | –
10 | CCCc1cnc(N2CCC(CCCOc3cc(F)c(-c4noc(C(C)C)n4)c(F)c3)CC2)nc1 [Example 23, 3-(2,6-difluoro-4-(3-(1-(5-propylpyrimidin-2-yl)piperidin-4-yl)propoxy)phenyl)-5-isopropyl-1,2,4-oxadiazole] | 78.3% | 141% | > 40% | – | –
11 | CCCCCc1cnc(N2CCC(CCCOc3cc(F)c(-c4noc(C(C)C)n4)c(F)c3)CC2)nc1 [Example 24, 3-(2,6-difluoro-4-(3-(1-(5-pentylpyrimidin-2-yl)piperidin-4-yl)propoxy)phenyl)-5-isopropyl-1,2,4-oxadiazole] | 132% | 309% | < 30% | – | –
12 | CC(C)c1nc(N2CCC(CCCOc3cc(F)c(-c4nnc(C(C)C)o4)c(F)c3)CC2)no1 [Example 59, 3-(4-(3-(3,5-difluoro-4-(5-isopropyl-1,3,4-oxadiazol-2-yl)phenoxy)propyl)piperidin-1-yl)-5-isopropyl-1,2,4-oxadiazole] | 140% | 329% | – | – | –
13 | CCc1cnc(N2CCC(CCCOc3cc(F)c(-c4nnc(C(C)C)s4)c(F)c3)CC2)nc1 [Example 60, 2-(4-(3-(1-(5-ethylpyrimidin-2-yl)piperidin-4-yl)propoxy)-2,6-difluorophenyl)-5-isopropyl-1,3,4-thiadiazole] | 285% | 516% | – | – | –
14 | CCCc1cnc(N2CCC(CCCOc3cc(F)c(-c4nnc(C(C)C)s4)c(F)c3)CC2)nc1 [Example 61, 2-(2,6-difluoro-4-(3-(1-(5-propylpyrimidin-2-yl)piperidin-4-yl)propoxy)phenyl)-5-isopropyl-1,3,4-thiadiazole] | 98.1% | 186% | – | – | –
15 | CCCCCc1cnc(N2CCC(CCCOc3cc(F)c(-c4nnc(C(C)C)s4)c(F)c3)CC2)nc1 [Example 62, 2-(2,6-difluoro-4-(3-(1-(5-pentylpyrimidin-2-yl)piperidin-4-yl)propoxy)phenyl)-5-isopropyl-1,3,4-thiadiazole] | 88.8% | 169% | – | – | –
16 | CC(C)c1nnc(-c2c(F)cc(OCCCC3CCN(c4ncc(F)cn4)CC3)cc2F)s1 [Example 63, 2-(2,6-difluoro-4-(3-(1-(5-fluoropyrimidin-2-yl)piperidin-4-yl)propoxy)phenyl)-5-isopropyl-1,3,4-thiadiazole] | 114% | 228% | – | – | –
17 | CC(C)c1nnc(-c2c(F)cc(OCCCC3CCN(c4ncc(C(F)(F)F)cn4)CC3)cc2F)s1 [Example 64, 2-(2,6-difluoro-4-(3-(1-(5-(trifluoromethyl)pyrimidin-2-yl)piperidin-4-yl)propoxy)phenyl)-5-isopropyl-1,3,4-thiadiazole] | 77% | 179% | – | – | –
18 | CC(C)c1nnc(-c2c(F)cc(OCCCC3CCN(c4ccc(C(F)(F)F)cn4)CC3)cc2F)s1 [Example 65, 2-(2,6-difluoro-4-(3-(1-(5-(trifluoromethyl)pyridin-2-yl)piperidin-4-yl)propoxy)phenyl)-5-isopropyl-1,3,4-thiadiazole] | 78.1% | 189% | – | – | –
19 | CCc1cnc(N2CCC(CCCOc3cc(F)c(-c4nc(CC)cs4)c(F)c3)CC2)nc1 [Example 66, 4-ethyl-2-(4-(3-(1-(5-ethylpyrimidin-2-yl)piperidin-4-yl)propoxy)-2,6-difluorophenyl) thiazole] | 95.6% | 120% | – | – | –
